Laboratory results: PubChem BioAssay (NCI)
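The compound was tested at five concentrations on cells cultured in 96-well plates, with a 48-hour exposure period. At the GI50, growth is halved. TGI denotes the concentration required for complete inhibition of growth.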

Assays:
Experiment in all cases: NCI tumour cell line growth inhibition, 48 h
K-562 leukemia = system: K-562 leukemia
NCI-H460 lung = system: NCI-H460 lung
PC-3 prostate = system: PC-3 prostate
UACC-257 melanoma = system: UACC-257 melanoma
RPMI-8226 leukemia = system: RPMI-8226 leukemia
KM12 colon = system: KM12 colon
MOLT-4 leukemia = system: MOLT-4 leukemia
SK-MEL-2 melanoma = system: SK-MEL-2 melanoma
NCI/ADR-RES ovarian = system: NCI/ADR-RES ovarian
786-0 renal = system: 786-0 renal
HT29 colon = system: HT29 colon
U251 CNS = system: U251 CNS
HOP-62 NSCLC = system: HOP-62 NSCLC
RXF 393 renal = system: RXF 393 renal
BT-549 breast = system: BT-549 breast
COLO 205 colon = system: COLO 205 colon
SW-620 colon = system: SW-620 colon
OVCAR-8 ovarian = system: OVCAR-8 ovarian
SF-268 CNS = system: SF-268 CNS
SNB-75 CNS = system: SNB-75 CNS
NCI-H522 lung = system: NCI-H522 lung
SK-MEL-5 melanoma = system: SK-MEL-5 melanoma
A549 NSCLC = system: A549 NSCLC
SNB-19 CNS = system: SNB-19 CNS
SK-MEL-28 melanoma = system: SK-MEL-28 melanoma
IGROV1 ovarian = system: IGROV1 ovarian

SMILES: CC(C)[P+](c1ccccc1)(c1ccccc1)c1ccccc1
- GI50 (K-562 leukemia): 2.4 µM
- TGI (K-562 leukemia): > 100 µM
- GI50 (NCI-H460 lung): 6.92 µM
- TGI (NCI-H460 lung): > 100 µM
- GI50 (PC-3 prostate): 2.42 µM
- TGI (PC-3 prostate): 34.6 µM
- GI50 (UACC-257 melanoma): 1.07 µM
- TGI (UACC-257 melanoma): 7.06 µM
- GI50 (RPMI-8226 leukemia): 1.72 µM
- TGI (RPMI-8226 leukemia): 23.6 µM
- GI50 (KM12 colon): 2.57 µM
- TGI (KM12 colon): > 100 µM
- GI50 (MOLT-4 leukemia): 6.9 µM
- TGI (MOLT-4 leukemia): > 100 µM
- GI50 (SK-MEL-2 melanoma): 3.77 µM
- TGI (SK-MEL-2 melanoma): 21.9 µM
- GI50 (NCI/ADR-RES ovarian): > 100 µM
- TGI (NCI/ADR-RES ovarian): > 100 µM
- GI50 (786-0 renal): 32.5 µM
- TGI (786-0 renal): > 100 µM
- GI50 (HT29 colon): 5.8 µM
- TGI (HT29 colon): > 100 µM
- GI50 (U251 CNS): 4.11 µM
- TGI (U251 CNS): > 100 µM
- GI50 (HOP-62 NSCLC): 19 µM
- TGI (HOP-62 NSCLC): > 100 µM
- GI50 (RXF 393 renal): 27.4 µM
- TGI (RXF 393 renal): > 100 µM
- GI50 (BT-549 breast): 5.55 µM
- TGI (BT-549 breast): > 100 µM
- GI50 (COLO 205 colon): 3.87 µM
- TGI (COLO 205 colon): 16 µM
- GI50 (SW-620 colon): 6.83 µM
- TGI (SW-620 colon): > 100 µM
- GI50 (OVCAR-8 ovarian): 4.42 µM
- TGI (OVCAR-8 ovarian): > 100 µM
- GI50 (SF-268 CNS): 5.11 µM
- TGI (SF-268 CNS): > 100 µM
- GI50 (SNB-75 CNS): 4.81 µM
- TGI (SNB-75 CNS): 66 µM
- GI50 (NCI-H522 lung): 2.6 µM
- TGI (NCI-H522 lung): 26.5 µM
- GI50 (SK-MEL-5 melanoma): 2.22 µM
- TGI (SK-MEL-5 melanoma): 7.9 µM
- GI50 (A549 NSCLC): 5.07 µM
- TGI (A549 NSCLC): > 100 µM
- GI50 (SNB-19 CNS): 5.54 µM
- TGI (SNB-19 CNS): > 100 µM
- GI50 (SK-MEL-28 melanoma): 21.2 µM
- TGI (SK-MEL-28 melanoma): > 100 µM
- GI50 (IGROV1 ovarian): 14.3 µM
- TGI (IGROV1 ovarian): > 100 µM
